According to patent US20230285372A1, “Pharmaceutical use of (E)-3-arylheterocyclylprop-2-enoic acid derivatives” (MEDCURIUS INC., priority 2020, published 2023):

How the values were obtained:
HO-1 = HO-1 expression in HT-22 cytoplasm, Western Blot; format: cell-based, mouse; conditions: HT-22 cells, 1.25 μM and 0.625 μM, 24 hours, vs control group
Excerpt: (§1) As a transcription factor, Nrf2 needs to enter the nucleus and combine with ARE sequence to play a role in transcriptional activation. Therefore, Nrf2 protein level in the nucleus is an important prerequisite for the activation of Nrf2 signaling pathway. NQO-1 and HO-1 are target genes regulated by Nrf2, and the increase of their protein levels is an important sign of activation of the Nrf2 signaling pathway.
(§2) HT-22 cells in logarithmic growth phase were selected, the culture medium was discarded, the cells were digested with 0.25% Trypsin containing EDTA, and cell suspension was made. Cell density was adjusted to 50000/ml with DMEM/F12 medium (containing 10% FBS and 1% double antibody) and it was inoculated to 6-well plate, with 2000 μL/well, the number of cells per well was 100, 000, and the cells were cultured in a cell incubator at 37° C. in an atmosphere containing 5% CO2 for 24 hours. Then, the medium of each well was replaced with new 1980 μL DMEM/F12 medium. […] After 24 hours, the cells were collected, nuclear protein and cytoplasmic protein were extracted, and the level of Nrf2 in the nucleus and the expression of NQO-1 and HO-1 in cytoplasm were detected by Western Blot.

[1] = system: MPTP-induced Parkinson's disease mouse; test: Rotarod test, MPTP-induced Parkinson's disease mouse; format: in vivo; conditions: vs model group
Experimental: Male C57 mouse were screened for their motor function by a mouse rod-rotating test, and unqualified ones were excluded from the test. […] MPTP was injected subcutaneously every 4 days in the model group and the drug administration group with a dosage of 25 mg/kg for 40 consecutive days. Each group of I-5 was administered once a day at 8:00 am and 8:00 pm (by intragastric administration), twice in total. […] The intragastric volume was 0.1 ml/10 g body weight, and the behavior test was started 40 days later. […] The storage time of the prepared liquid medicine was not more than 24 hours.
On the first day, the mouse acclimated to a rotating speed of 5 rpm for two times, each time for 5 minutes. On the second day, the rotarod turned at a speed of 10 rpm, the mouse acclimated to the speed for two times, each time for 5 minutes. On the third day, the rotarod turned at a speed of 15 rpm, the mouse acclimated to the speed for two times, each time for 3 minutes. On the fourth day, a behavioral test was started. The rotarod turned at a speed of 15 rpm for a period of 3 minutes. The time mouse spent on the rotarod (fall latency) was taken as an index for evaluation of their motor coordination. The test was repeated three times for each animal, with an interval of 30 minutes to eliminate the interference of exercise fatigue on the motion ability of animals.

Nrf2 = Nrf2 protein level in the nucleus of HT-22 cells, Western Blot; format: cell-based, mouse; conditions: 1.25 μM and 0.625 μM, 24 hours, vs control group
Excerpt: as §1, §2

HT-22 cells = test: Protective effect on HT-22 cell damage caused by L-glutamate monosodium salt; format: cell-based, mouse; conditions: 15 mM L-glutamate
Experimental: (§3) Well-proliferated HT-22 cells, derived from mouse hippocampal neuronal cells in logarithmic growth phase, were selected, and they were counted after being subjected to trypsin digestion and dispersion. The cell density was adjusted with DMEM/F12 medium (containing 10% FBS and 1% double antibody). The cells were then inoculated in a 96-well plate at a density of 2,000 cells per well, and cultured in a cell incubator at 37° C. in atmosphere containing 5% CO2 for 24 hours. For the control group and the L-glutamate monosodium salt group (model group), serum-free DMEM/F12 medium was added, and the other wells were added with tested compounds of different concentrations; except that the serum-free DMEM/F12 medium was added to the control group. L-glutamate monosodium salt solution at the final concentration of 15 mM was added to the remaining wells. After 24 hours, the cell viability was detected with a luminescent cell viability assay kit.
as §3, with “group,” for “group.”
as §3, with “2.000” for “2,000”, “group,” for “group.”

[2] = system: tyrosine hydroxylase (TH); test: Tyrosine hydroxylase (TH) level in midbrain, immunohistochemistry, MPTP mouse; format: in vivo; conditions: medium and high dosage of I-5 (10 and 20 mg/kg bid); vs model group
Experimental: Tyrosine hydroxylase (TH), the rate-limiting enzyme in dopamine synthesis, is the landmark protein of the dopaminergic neurons. Therefore, the decrease in its level indicates the loss of the dopaminergic neurons.
Male C57 mouse were screened for their motor function by a mouse rod-rotating test, and unqualified ones were excluded from the test. […] MPTP was injected subcutaneously every 4 days in the model group and the drug administration group with a dosage of 25 mg/kg for 40 consecutive days. Each group of I-5 was administered once a day at 8:00 am and 8:00 pm (by intragastric administration), twice in total. The control group and model group were given the corresponding solvent once a day in the morning (by intragastric administration) while the positive control group (L-DOPA) was given L-DOPA once a day in the morning (by intragastric administration). The intragastric volume was 0.1 ml/10 g body weight, and the behavior test was started 40 days later. […] The storage time of the prepared liquid medicine was not more than 24 hours.
Tissues from all the animals were collected on the second day after the end of the behavioral experiment. […] The level of tyrosine hydroxylase (TH), a marker protein of dopaminergic neurons, was detected by immumohistochemistry, and α-synuclein protein level and phosphorylation level of the protein were detected by Western blot.

N#C/C=C/c1ccccn1 [Compound I-5]
protein level of HO-1 (HO-1): increased significantly | fall latency in the Rotarod test ([1]; 5 mg/kg bid intragastric, p>0.05): no significant difference | fall latency in the Rotarod test ([1]; medium and high dosage groups (10 and 20 mg/kg bid), p<0.0001): significantly prolonged | protein level of Nrf2 in the nucleus (Nrf2): significantly higher than that of the control group | protection of HT22 cells against L-glutamate monosodium salt damage, in words (HT-22 cells; HT22 cells, comparison with positive control drug DMF): better effects than the positive control drug DMF | viability at 0.156 µM (HT-22 cells; Mus musculus, HT-22, 24 h, Table 1, Conc 0.156 μm, 24 hours, L-Glu alone 27.73 (I-5 32.92), read-out: cell viability): 79.3% | viability at 0.625 µM (HT-22 cells; Mus musculus, HT-22, 24 h, Table 1, Conc 0.625 μm, 24 hours, L-Glu alone 27.73 (I-5 32.92), read-out: cell viability): 73.7% | viability at 2.5 µM (HT-22 cells; Mus musculus, HT-22, 24 h, Table 1, Conc 2.5 μm, 24 hours, L-Glu alone 27.73 (I-5 32.92), read-out: cell viability): 57.6% | viability at 5 µM (HT-22 cells; Mus musculus, HT-22, 24 h, Table 1, Conc 5 μm, 24 hours, L-Glu alone 27.73 (I-5 32.92), read-out: cell viability): 58.2% | TH positive area of substantia nigra [2]: significantly increase the TH positive area
